Assay results published in patent US20250154109A1, “SODIUM CHANNEL BLOCKING COMPOUNDS, DERIVATIVES THEREOF, AND METHODS OF THEIR USE” (LATIGO BIOTHERAPEUTICS, INC, priority 2022, published 2025).

Assays:
human Nav1.8 [1] = target: T1, human Nav1.8 (Homo sapiens, UniProt Q9Y5Y9); assay: Sophion Qpatch II assay (automated patch clamp); format: cell-based; details: resting state block (TP1 measurement), human Nav1.8 HEK293 cells, read-out: P1 IC50
Experimental: Compounds were tested on recombinant human Nav1.8/01 stably transfected HEK293 (Eurofins, CYL3025, St. Charles, MO) cells using the Qpatch II system (Sophion Bioscience A/S, Ballerup—Denmark), an automated patch clamp device. Cells were cultured at 37° C./5% CO2 in DMEM/F-12 supplemented with 10% fetal bovine serum, lx Non-Essential Amino Acids, and selection antibiotics (0.625 μg/mL Puromycin, 400 μg/mL Geneticin, and 100 μg/mL Hygromycin). One or two days prior to recording, cells were moved to a lower temperature 30° C./5% CO2 incubator to increase surface expression of the channels. On the day of the recordings, cells in culture dishes were washed twice with Ca^2+—Mg^2+ free DPBS and treated with Detachin (Genlantis, San Diego) for 3 minutes and then resuspended in Serum Free Medium (EX-CELL® ACF CHO Medium for Cell Culture (Sigma-Aldrich) supplemented with 0.04 mg/mL soybean trypsin Inhibitor and 25 mM HEPES (all components supplied by Sigma-Aldrich, St. Louis, MO) and allowed to recover for a minimum of 20 minutes in the onboard Qstirrer. All experiments were performed at ambient temperature. Intracellular solution contained (mM): CsCl, 50; CsF, 90; MgCl2, 2; EGTA, 5; HEPES, 10; pH adjusted to 7.2 with CsOH. Extracellular solution contained (mM): NaCl, 137; KCl, 4; CaCl2), 3.8; MgCl2, 1; HEPES, 10; Glucose, 10; pH adjusted to 7.4 with NaOH. 500 nM tetrodotoxin (TTX) was added to the extracellular solution to block endogenous TTX-sensitive sodium currents.
Compounds were tested in an interleaved manner across two cohorts of wells to develop an aggregate 8-point concentration response curve. Final concentrations include 0.5% DMSO and 0.03% pluronic Acid. The concentration range spanned a range from 0.01-300 nM. Compounds were diluted 1:10 with extracellular solution within their respective cohort. (R)-2-(4-fluoro-2-methylphenoxy)-N-(3-(S-methylsulfonimidoyl)phenyl)-5-(trifluoromethyl)nicotinamide served as a positive control while DMSO (0.5% by volume) served as a vehicle control to ascertain assay performance.
Whole cell patch clamp recordings were conducted according to Sophion standard procedure for Qpatch II®. Cells were held at a holding potential of −120 mV. A depolarizing step to 10 mV for 30 ms was applied (TP1 measurement), followed by a hyperpolarization step to −100 mV for 20 ms. Due to instability observed at long depolarized potentials, there were no second TP2 measurements attempted. Inter-sweep interval was 15 sec. Following establishment of the whole-cell configuration in extracellular solution, cells were washed twice in extracellular solution containing 0.5% DMSO and 0.03% pluronic acid to stabilize the baseline current. Compounds were then applied by the Qpatch II system into each well in an ascending manner within cohort and the current was recorded for five minutes for each concentration. Percent of current remaining was determined by taking the average of the last 5 sweeps within each concentration and normalizing to the latest pre-compound saline period. The potency of the compounds was assessed on resting state block (TP1 measurement) only to obtain IC50 values. Wells whose initial sodium current magnitude were below 2 nA or whole cell resistance fell below 100 MQ were excluded from analysis.
Examples 220 to 224, Examples 237 to 257 and Example 259 are assayed using Sophion Qpatch II assay described above.

human Nav1.8 [2] = target: T1, human Nav1.8; assay: SyncroPatch384PE assay (automated patch clamp); format: cell-based; details: human Nav1.8/b3 CHO cells
[3] = inactivated state block (P2 measurement), read-out: P2 IC50
[4] = resting state block (P1 measurement), read-out: P1 IC50

T1 sequence (Q9Y5Y9 whole entry): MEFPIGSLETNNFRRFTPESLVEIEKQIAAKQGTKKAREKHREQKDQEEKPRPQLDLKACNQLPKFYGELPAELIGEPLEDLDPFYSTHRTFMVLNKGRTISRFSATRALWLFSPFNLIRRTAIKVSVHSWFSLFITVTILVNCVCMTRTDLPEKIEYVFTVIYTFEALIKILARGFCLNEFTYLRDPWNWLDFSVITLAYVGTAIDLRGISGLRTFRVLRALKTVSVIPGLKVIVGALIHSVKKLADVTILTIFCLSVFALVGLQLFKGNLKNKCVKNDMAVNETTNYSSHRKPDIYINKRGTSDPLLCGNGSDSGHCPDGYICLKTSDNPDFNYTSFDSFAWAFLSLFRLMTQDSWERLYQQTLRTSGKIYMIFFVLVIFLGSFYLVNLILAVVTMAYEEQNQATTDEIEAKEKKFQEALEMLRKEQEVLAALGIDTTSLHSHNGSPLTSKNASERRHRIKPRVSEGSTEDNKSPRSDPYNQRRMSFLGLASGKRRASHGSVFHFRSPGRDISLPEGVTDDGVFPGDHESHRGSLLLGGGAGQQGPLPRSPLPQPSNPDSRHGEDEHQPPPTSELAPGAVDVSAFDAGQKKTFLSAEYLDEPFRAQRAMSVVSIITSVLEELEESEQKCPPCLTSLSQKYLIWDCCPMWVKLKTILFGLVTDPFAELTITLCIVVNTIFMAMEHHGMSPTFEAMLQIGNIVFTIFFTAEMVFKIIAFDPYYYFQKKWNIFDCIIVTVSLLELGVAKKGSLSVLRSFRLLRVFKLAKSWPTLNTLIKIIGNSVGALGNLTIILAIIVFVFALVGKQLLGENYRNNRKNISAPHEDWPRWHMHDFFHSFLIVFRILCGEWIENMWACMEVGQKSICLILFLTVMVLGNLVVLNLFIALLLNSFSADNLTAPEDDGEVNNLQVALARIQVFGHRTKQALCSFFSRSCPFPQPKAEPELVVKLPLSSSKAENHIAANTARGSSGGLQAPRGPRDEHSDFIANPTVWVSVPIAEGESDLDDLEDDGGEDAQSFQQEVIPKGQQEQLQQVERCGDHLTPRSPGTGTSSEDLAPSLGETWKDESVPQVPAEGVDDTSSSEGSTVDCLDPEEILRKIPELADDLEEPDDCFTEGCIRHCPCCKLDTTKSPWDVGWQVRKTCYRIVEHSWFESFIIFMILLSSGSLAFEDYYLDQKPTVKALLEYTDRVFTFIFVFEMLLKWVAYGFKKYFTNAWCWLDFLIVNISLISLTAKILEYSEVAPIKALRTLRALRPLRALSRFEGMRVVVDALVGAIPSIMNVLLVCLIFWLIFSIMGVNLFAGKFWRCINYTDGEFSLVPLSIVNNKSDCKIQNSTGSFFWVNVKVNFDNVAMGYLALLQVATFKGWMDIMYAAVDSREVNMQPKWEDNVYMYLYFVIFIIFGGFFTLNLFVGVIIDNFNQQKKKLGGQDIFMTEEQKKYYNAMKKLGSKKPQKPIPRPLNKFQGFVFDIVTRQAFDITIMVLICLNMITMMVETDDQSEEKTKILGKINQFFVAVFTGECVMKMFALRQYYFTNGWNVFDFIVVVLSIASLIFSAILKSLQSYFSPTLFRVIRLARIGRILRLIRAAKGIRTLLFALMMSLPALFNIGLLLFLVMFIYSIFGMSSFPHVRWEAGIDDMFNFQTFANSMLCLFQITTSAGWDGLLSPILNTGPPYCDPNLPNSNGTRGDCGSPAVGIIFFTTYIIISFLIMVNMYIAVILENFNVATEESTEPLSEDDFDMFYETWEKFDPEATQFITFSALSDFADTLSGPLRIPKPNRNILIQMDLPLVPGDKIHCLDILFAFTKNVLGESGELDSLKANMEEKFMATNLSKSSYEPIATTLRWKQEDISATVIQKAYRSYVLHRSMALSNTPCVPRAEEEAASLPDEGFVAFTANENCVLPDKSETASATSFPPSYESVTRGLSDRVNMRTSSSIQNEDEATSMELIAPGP

| Structure (SMILES) | IC50 (human Nav1.8 [1]) | IC50 (human Nav1.8 [2]; [3]) | IC50 (human Nav1.8 [2]; [4]) |
| --- | --- | --- | --- |
| Cc1c(C(=O)Nc2cccc([S@](C)(=N)=O)c2)c(N2CCCC(F)(F)CC2)nc(C2CC2)c1C(F)(F)F [Example 224, (R)-6-cyclopropyl-2-(4,4-difluoroazepan-1-yl)-4-methyl-N-(3-(S-methylsulfonimidoyl)phenyl)-5-(trifluoromethyl)nicotinamide] | 5 to 50 nM |  |  |
| Cc1c(C(=O)Nc2cccc([S@@](C)(=N)=O)c2)c(N2CCCC(F)(F)CC2)nc(C2CC2)c1C(F)(F)F [Example 223, (S)-6-cyclopropyl-2-(4,4-difluoroazepan-1-yl)-4-methyl-N-(3-(S-methylsulfonimidoyl)phenyl)-5-(trifluoromethyl)nicotinamide] | ≤ 5 nM |  |  |
| Cc1c(C(F)(F)F)cnc(N2CCO[C@H](C(F)(F)F)C2)c1C(=O)Nc1ccnc([S@](C)(=N)=O)c1 [Example 237, 4-methyl-N-(2-((R)—S-methylsulfonimidoyl)pyridin-4-yl)-5-(trifluoromethyl)-2-((S)-2-(trifluoromethyl)morpholino)nicotinamide] | 50 to 100 nM |  |  |
| Cc1c(C(=O)Nc2ccnc([S@@](C)(=N)=O)c2)c(N2CCCC(F)(F)CC2)nc(C2CC2)c1C(F)(F)F [Example 221, (S)-6-cyclopropyl-2-(4,4-difluoroazepan-1-yl)-4-methyl-N-(2-(S-methylsulfonimidoyl)pyridin-4-yl)-5-(trifluoromethyl)nicotinamide] | 5 to 50 nM |  |  |
| Cc1c(C2CC2)nnc(N2CCCC(F)(F)CC2)c1C(=O)Nc1cccc(S(C)(=N)=O)c1 (stereo not shown) [Example 22, 6-cyclopropyl-3-(4,4-difluoroazepan-1-yl)-5-methyl-N-(3-(S-methylsulfonimidoyl)phenyl)pyridazine-4-carboxamide] |  | > 200 nM | > 200 nM |
| Cc1c(-c2ccc(C#N)cc2)cnc(N2CCCC(F)(F)CC2)c1C(=O)NC12CC(C(N)=O)(C1)C2 [Example 134, N-(3-carbamoylbicyclo[1.1.1]pentan-1-yl)-5-(4-cyanophenyl)-2-(4,4-difluoroazepan-1-yl)-4-methylnicotinamide] |  | > 200 nM | > 200 nM |
| Cc1c(C(F)(F)F)cnc(N2CCCC(F)(F)CC2)c1C(=O)Nc1cccc([S@@](C)(=O)=NC(=O)C(C)(C)N)c1 [Example 187, (R)-N-(3-(N-(2-amino-2-methylpropanoyl)-S-methylsulfonimidoyl)phenyl)-2-(4,4-difluoroazepan-1-yl)-4-methyl-5-(trifluoromethyl)nicotinamide] |  | ≤ 5 nM | ≤ 5 nM |
| CNCC(=O)N=[S@](C)(=O)c1cccc(NC(=O)c2c(N3CCCC(F)(F)CC3)ncc(C#CC3CC3)c2C)c1 [Example 64, (R)-5-(cyclopropylethynyl)-2-(4,4-difluoroazepan-1-yl)-4-methyl-N-(3-(S-methyl-N-(methylglycyl)sulfonimidoyl)phenyl)nicotinamide] |  | ≤ 5 nM | ≤ 5 nM |
| Cc1c(-c2ccc(C(F)(F)F)cc2)cnc(N2CCCC(F)(F)CC2)c1C(=O)Nc1cccc([S@](C)(=N)=O)c1 [Example 169, (R)-2-(4,4-difluoroazepan-1-yl)-4-methyl-N-(3-(S-methylsulfonimidoyl)phenyl)-5-(4-(trifluoromethyl)phenyl)nicotinamide] |  | ≤ 5 nM | ≤ 5 nM |
| Cc1c(C(F)(F)F)nnc(N2CCCC(F)(F)CC2)c1C(=O)Nc1cccc([S@@](C)(=O)=NC(=O)[C@H](C)O)c1 [Example 233, 3-(4,4-difluoroazepan-1-yl)-N-(3-((R)-N-((S)-2-hydroxypropanoyl)-S-methylsulfonimidoyl)phenyl)-5-methyl-6-(trifluoromethyl)pyridazine-4-carboxamide] |  | ≤ 5 nM | ≤ 5 nM |

Other lines, results leading:

| IC50 (human Nav1.8 [1]) | IC50 (human Nav1.8 [2]; [3]) | IC50 (human Nav1.8 [2]; [4]) | Structure (SMILES) |
| --- | --- | --- | --- |
| 5 to 50 nM |  |  | C[S@@](=N)(=O)c1cc(NC(=O)c2cc(Cl)c(C(F)(F)F)cc2N2CCC(F)(F)CC2)ccc1F [Example 254, (R)-5-chloro-2-(4,4-difluoropiperidin-1-yl)-N-(4-fluoro-3-(S-methylsulfonimidoyl)phenyl)-4-(trifluoromethyl)benzamide] |
| 50 to 100 nM |  |  | NC(=O)[C@H]1C[C@H](NC(=O)c2cc(Cl)c(C(F)(F)F)cc2N2CCCC(F)(F)CC2)C1 [Example 252, N-((trans)-3-carbamoylcyclobutyl)-5-chloro-2-(4,4-difluoroazepan-1-yl)-4-(trifluoromethyl)benzamide] |
| 50 to 100 nM |  |  | C[S@](=N)(=O)c1cc(NC(=O)c2cc(Cl)c(C(F)(F)F)cc2N2CCC(C(F)(F)F)CC2)ccn1 [Example 244, (S)-5-chloro-N-(2-(S-methylsulfonimidoyl)pyridin-4-yl)-4-(trifluoromethyl)-2-(4-(trifluoromethyl)piperidin-1-yl)benzamide] |
| 50 to 100 nM |  |  | Cc1c(C(F)(F)F)cnc(N2CCCC(F)(F)CC2)c1C(=O)N[C@H]1C[C@H](C(N)=O)C1 [Example 257, N-((trans)-3-carbamoylcyclobutyl)-2-(4,4-difluoroazepan-1-yl)-4-methyl-5-(trifluoromethyl)nicotinamide] |
| 5 to 50 nM |  |  | Cc1c(C(F)(F)F)cnc(N2CCC(C(F)(F)F)CC2)c1C(=O)Nc1cccc([S@](C)(=N)=O)c1 [Example 242, (R)-4-methyl-N-(3-(S-methylsulfonimidoyl)phenyl)-5-(trifluoromethyl)-2-(4-(trifluoromethyl)piperidin-1-yl)nicotinamide] |
| > 200 nM |  |  | Cc1c(C(F)(F)F)cnc(N2CCO[C@@H](C(F)(F)F)C2)c1C(=O)Nc1ccnc([S@](C)(=N)=O)c1 [Example 239, 4-methyl-N-(2-((R)—S-methylsulfonimidoyl)pyridin-4-yl)-5-(trifluoromethyl)-2-((R)-2-(trifluoromethyl)morpholino)nicotinamide] |
| 50 to 100 nM |  |  | Cc1c(C(F)(F)F)cnc(N2CCCC(F)(F)CC2)c1C(=O)N[C@H]1C[C@@H](C(N)=O)C1 [Example 259, N-((cis)-3-carbamoylcyclobutyl)-2-(4,4-difluoroazepan-1-yl)-4-methyl-5-(trifluoromethyl)nicotinamide] |
| 50 to 100 nM |  |  | C[S@](=N)(=O)c1cc(NC(=O)c2cc(Cl)c(C(F)(F)F)cc2N2CCC(F)(F)CC2)ccc1F [Example 249, (S)-5-chloro-2-(4,4-difluoropiperidin-1-yl)-N-(4-fluoro-3-(S-methylsulfonimidoyl)phenyl)-4-(trifluoromethyl)benzamide] |
| 100 to 200 nM |  |  | C[S@](=N)(=O)c1cc(NC(=O)c2cc(Cl)c(C(F)(F)F)cc2N2CCC(F)(F)CC2)ccn1 [Example 247, (S)-5-chloro-2-(4,4-difluoropiperidin-1-yl)-N-(2-(S-methylsulfonimidoyl)pyridin-4-yl)-4-(trifluoromethyl)benzamide] |
| 5 to 50 nM |  |  | C[S@@](=N)(=O)c1cc(NC(=O)c2cc(Cl)c(C(F)(F)F)cc2N2CCC(C(F)(F)F)CC2)ccc1F [Example 245, (R)-5-chloro-N-(4-fluoro-3-(S-methylsulfonimidoyl)phenyl)-4-(trifluoromethyl)-2-(4-(trifluoromethyl)piperidin-1-yl)benzamide] |
| 5 to 50 nM |  |  | C[S@](=N)(=O)c1cccc(NC(=O)c2cc(Cl)c(C(F)(F)F)cc2N2CCC(F)(F)CC2)c1 [Example 255, (S)-5-chloro-2-(4,4-difluoropiperidin-1-yl)-N-(3-(S-methylsulfonimidoyl)phenyl)-4-(trifluoromethyl)benzamide] |
| 50 to 100 nM |  |  | C[S@](=N)(=O)c1cc(NC(=O)c2cc(Cl)c(C(F)(F)F)cc2N2CCC(C(F)(F)F)CC2)ccc1F [Example 246, (S)-5-chloro-N-(4-fluoro-3-(S-methylsulfonimidoyl)phenyl)-4-(trifluoromethyl)-2-(4-(trifluoromethyl)piperidin-1-yl)benzamide] |
